# Results: patent US20260001875A1, “AMINOPYRIMIDINYL DERIVATIVES FOR THE TREATMENT OF PARKINSON'S DISEASE” (UNIVERSITY OF DUNDEE, priority 2022, published 2026)
# Entries after “also recorded” stand apart in the source; their conditions may differ.
# Molecular target: LRRK2 (Homo sapiens, UniProt Q5S007)
# Assay: LRRK2 degradation in PBMC
# Assay type: cell-based
# Design: endogenous in cells; host or cells: human peripheral blood mononuclear cells (PBMC)
# Protocol: PBMC cells were separated from human blood following existing protocol (dx.doi.org/10.17504/protocols.io.bnhxmb7n) and pelleted by centrifugation at 1000 g for 2 min. The supernatant was discarded and the PBMC pellet was resuspended in PBS containing 2% FBS for washing. The suspension was centrifuged at 1000 g for 2 min again and the PBMC pellet was resuspended in RPMI-1640 (Gibco) media supplemented with 10% FBS. The cells were then seeded into 6-well plates and treated with testing compounds at indicated concentrations and time period. After treatment, the cells were collected into 2-ml Eppendorf tube and centrifuged at 500 g for 2 min to pellet the cells, the supernatant was discarded, and the pellet was resuspended in 1 ml PBS and centrifuged at 500 g for 2 min again. The PBMC pellet was lysed with 60 μL of lysis buffer containing 50 mM Tris-HCl, pH 7.5, 1% (v/v) Triton X-100, 1 mM EGTA, 1 mM sodium orthovanadate, 50 mM NaF, 0.1% (v/v) 2-mercaptoethanol, 10 mM 2-glycerophosphate, 5 mM sodium pyrophosphate, 0.1 μg/ml mycrocystin-LR (Enzo Life Sciences), 270 mM sucrose, 0.5 mM DIFP (Sigma, Cat #D0879) in addition to Complete EDTA-free protease inhibitor cocktail (Sigma-Aldrich Cat #11836170001). DIFP is highly toxic and must be prepared in a fume hood to a stock solution of 0.5 M in isopropanol. The lysed cells were then centrifuged at 1500 g for 15 min at 0° C. The supernatants were collected for analysis by quantitative immunoblotting. For long term storage, the supernatant was flash frozen and stored at −80° C. Protein concentrations of cell lysates were determined using Pierce™ BCA Protein Assay Kit (ThermoFisher).
# Cell lysates containing a quarter of a volume of 4× NuPAGE LDS sample buffer (NP0007) supplemented with 5% β-mercaptoethanol, were heated at 95° C. for 5 minutes. 15 to 20 μg of samples were loaded onto pre-cast 4-12% Bis-Tris midi 20W or 26W gels (Thermofisher Scientific®, Cat #WG1402BOX or WG1403BOX) and resolved at 130 V for 2 hours with NuPAGE MOPS SDS running buffer (Thermofisher Scientific® Cat #NP0001-02). Proteins were electrophoretically transferred onto a 0.45 μm nitrocellulose membrane (GE Healthcare, Amersham Protran® Supported 0.45 mm NC) at 90 V for 90 min on ice in transfer buffer (48 mM Tris base and 39 mM glycine supplemented with 20% methanol). The transferred membrane was blocked with 5% (w/v) skim milk powder dissolved in tris-buffered saline with tween (TBS-T) (50 mM Tris base, 150 mM sodium chloride (NaCl), 0.1% (v/v) Tween-20) at room temperature for 1 hour. Membranes were washed three times with TBS-T and were incubated in primary antibody overnight at 4° C. Prior to secondary antibody incubation, membranes were washed three times for 15 minutes with TBS-T. The membranes were incubated with secondary antibody for 1 hour at room temperature, protected from light. Thereafter, the membranes were washed with TBS-T three times with a 15-minute incubation for each wash, and protein bands were acquired via near-infrared fluorescent detection using the Odyssey CLx imaging system and quantified using Image Studio software. Graphs were generated using Graphpad Prism version 8 software.
# Monoclonal rabbit LRRK2 Ser935 (Cat #UDD2) was purified by MRC PPU Reagents and Services at the University of Dundee and was used at a final concentration of 1 μg/ml. Total LRRK2 (C-terminus) was from Antibodies Inc./Neuromab (Cat #75-253) and was diluted 1:1000. The MJFF monoclonal rabbit Rab10 pThr73, which was characterized previously (Lis et al., Biochem J. 2018 Jan. 2; 475(1):1-22.) was purchased from Abcam Inc. (ab230261) and diluted 1:1000. Mouse monoclonal alpha-tubulin (#3873) was purchased from Cell Signaling Technology and used at 1:1000. The mouse monoclonal anti-Rab10 total antibody was purchased from Nanotools (#0680-100/Rab10-605B11) and was used at a final concentration of 1 μg/ml. Mouse monoclonal Hif-1α was purchased from R&D Systems (Cat #MAB1536) and was diluted 1:1000.
# Chain of LRRK2 (Q5S007 whole entry): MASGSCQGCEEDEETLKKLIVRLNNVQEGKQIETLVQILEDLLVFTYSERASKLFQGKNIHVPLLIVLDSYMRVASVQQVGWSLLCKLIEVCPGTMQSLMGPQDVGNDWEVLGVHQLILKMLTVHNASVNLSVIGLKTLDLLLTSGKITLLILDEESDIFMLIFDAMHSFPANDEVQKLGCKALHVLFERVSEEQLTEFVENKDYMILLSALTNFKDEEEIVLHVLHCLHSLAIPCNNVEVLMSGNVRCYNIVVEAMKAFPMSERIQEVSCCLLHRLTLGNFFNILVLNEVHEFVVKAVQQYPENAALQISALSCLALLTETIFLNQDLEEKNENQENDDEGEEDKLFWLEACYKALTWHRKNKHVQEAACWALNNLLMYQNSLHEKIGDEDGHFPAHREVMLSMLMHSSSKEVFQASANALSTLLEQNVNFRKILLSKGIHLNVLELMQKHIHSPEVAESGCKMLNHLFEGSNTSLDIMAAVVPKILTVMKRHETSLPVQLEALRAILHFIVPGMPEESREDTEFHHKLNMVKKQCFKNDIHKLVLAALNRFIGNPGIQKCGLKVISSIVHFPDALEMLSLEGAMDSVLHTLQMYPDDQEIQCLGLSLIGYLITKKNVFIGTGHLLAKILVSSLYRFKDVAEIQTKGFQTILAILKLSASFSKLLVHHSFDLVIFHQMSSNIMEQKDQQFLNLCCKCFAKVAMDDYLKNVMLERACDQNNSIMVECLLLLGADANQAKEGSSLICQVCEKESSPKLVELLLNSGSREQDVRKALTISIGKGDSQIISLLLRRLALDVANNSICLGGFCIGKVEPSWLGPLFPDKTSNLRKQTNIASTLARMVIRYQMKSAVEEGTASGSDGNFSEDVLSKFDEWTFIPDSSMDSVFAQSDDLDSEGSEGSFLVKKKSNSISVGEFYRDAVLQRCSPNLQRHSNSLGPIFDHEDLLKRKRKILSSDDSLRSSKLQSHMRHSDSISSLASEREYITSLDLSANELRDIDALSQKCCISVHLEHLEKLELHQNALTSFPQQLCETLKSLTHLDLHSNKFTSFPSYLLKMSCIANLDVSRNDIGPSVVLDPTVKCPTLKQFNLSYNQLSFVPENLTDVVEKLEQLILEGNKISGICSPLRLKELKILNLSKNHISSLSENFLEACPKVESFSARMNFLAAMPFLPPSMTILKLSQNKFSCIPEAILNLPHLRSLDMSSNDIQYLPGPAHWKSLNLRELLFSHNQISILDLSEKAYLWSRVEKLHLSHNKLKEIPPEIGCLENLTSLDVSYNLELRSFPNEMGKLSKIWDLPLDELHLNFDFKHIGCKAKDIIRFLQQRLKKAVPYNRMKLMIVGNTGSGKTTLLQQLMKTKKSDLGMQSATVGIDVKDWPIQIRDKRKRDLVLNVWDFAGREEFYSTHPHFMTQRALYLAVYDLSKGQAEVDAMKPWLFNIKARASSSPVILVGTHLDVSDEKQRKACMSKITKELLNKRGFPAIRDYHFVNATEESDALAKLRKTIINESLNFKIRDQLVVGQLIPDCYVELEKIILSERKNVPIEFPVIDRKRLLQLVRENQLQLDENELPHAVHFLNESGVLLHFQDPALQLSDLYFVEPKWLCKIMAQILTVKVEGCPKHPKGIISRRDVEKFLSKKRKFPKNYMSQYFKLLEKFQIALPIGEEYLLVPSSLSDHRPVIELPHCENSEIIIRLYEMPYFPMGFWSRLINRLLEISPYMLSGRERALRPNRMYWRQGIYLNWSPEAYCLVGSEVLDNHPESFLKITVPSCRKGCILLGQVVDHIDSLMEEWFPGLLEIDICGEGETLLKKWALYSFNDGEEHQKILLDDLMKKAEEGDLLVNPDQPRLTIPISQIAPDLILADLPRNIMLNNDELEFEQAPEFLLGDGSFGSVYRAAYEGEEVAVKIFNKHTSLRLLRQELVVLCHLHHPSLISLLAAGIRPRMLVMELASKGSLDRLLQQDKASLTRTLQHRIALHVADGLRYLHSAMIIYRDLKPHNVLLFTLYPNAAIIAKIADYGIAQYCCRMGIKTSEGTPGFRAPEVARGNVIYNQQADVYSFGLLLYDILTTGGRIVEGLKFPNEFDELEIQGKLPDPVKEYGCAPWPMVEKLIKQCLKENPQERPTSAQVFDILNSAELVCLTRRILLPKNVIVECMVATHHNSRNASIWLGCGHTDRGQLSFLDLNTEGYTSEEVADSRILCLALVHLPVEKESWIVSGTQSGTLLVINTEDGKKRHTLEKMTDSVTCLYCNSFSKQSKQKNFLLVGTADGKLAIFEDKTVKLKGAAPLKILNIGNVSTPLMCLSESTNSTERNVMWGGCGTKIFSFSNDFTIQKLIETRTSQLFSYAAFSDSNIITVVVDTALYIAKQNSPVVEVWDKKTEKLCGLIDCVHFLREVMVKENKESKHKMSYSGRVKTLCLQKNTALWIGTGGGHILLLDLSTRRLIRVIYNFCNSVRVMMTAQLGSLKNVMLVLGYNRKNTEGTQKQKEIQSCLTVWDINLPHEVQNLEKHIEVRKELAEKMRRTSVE
Structure (SMILES),LRRK2 degradation in PBMC (in words) (4 h treatment),LRRK2 degradation in PBMC (in words) (24 h treatment),LRRK2 degradation in PBMC (in words) (time course at 300 nM),DC50 (4 h treatment) [nM],DC50 (24 h treatment) [nM],Dmax of LRRK2 degradation in PBMC (24 h treatment),T1/2 of LRRK2 degradation in PBMC (time course at 300 nM) [h]
"CNc1nc(Nc2ccc(C(=O)N3CCN(C[C@H]4CC[C@H](CSC(C)(C)[C@H](NC(=O)C5(F)CC5)C(=O)N5C[C@@H](O)CC5C(=O)NCc5ccc(-c6scnc6C)cc5)CC4)CC3)cc2OC)ncc1Cl (stereo partly drawn) [Cis-XL01126, (2S,4S)-1-((R)-3-((((1r,4R)-4-((4-(4-((5-chloro-4-(methylamino)pyrimidin-2-yl)amino)-3-methoxybenzoyl)piperazin-1-yl)methyl)cyclohexyl)methyl)thio)-2-(1-fluorocyclopropane-1-carboxamido)-3-methylbutanoyl)-4-hydroxy-N-(4-(4-methylthiazol-5-yl)benzyl)pyrrolidine-2-carboxamide]",cannot degrade LRRK2,degraded little LRRK2; also recorded: cannot degrade LRRK2,cannot degrade LRRK2,,,,
"CNc1nc(Nc2ccc(C(=O)N3CCN(C[C@H]4CC[C@H](CSC(C)(C)[C@H](NC(=O)C5(F)CC5)C(=O)N5C[C@H](O)CC5C(=O)NCc5ccc(-c6scnc6C)cc5)CC4)CC3)cc2OC)ncc1Cl (stereo partly drawn) [XL01126, (2S,4R)-1-((R)-3-((((1R,4R)-4-((4-(4-((5-chloro-4-(methylamino)pyrimidin-2-yl)amino)-3-methoxybenzoyl)piperazin-1-yl)methyl)cyclohexyl)methyl)thio)-2-(1-fluorocyclopropane-1-carboxamido)-3-methylbutanoyl)-4-hydroxy-N-(4-(4-methylthiazol-5-yl)benzyl)pyrrolidine-2-carboxamide]",,,,72,17,80-90%,2.4
